System: 931267-113-T-J1-PDC KRAS spheroid with HUVEC/MSC, viability
Assay: Anticancer human tumor 931267-113-T-J1-PDC patient-derived colon adenocarcinoma cell line growth inhibition [KRAS2]
Conditions: for IC50: curve of first compound; for viability, T/C: stronger effect = lower value
Outline: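 Combination screen of spheroid viability in tumor-cell co-cultures with endothelial (HUVEC) and mesenchymal stem cell stroma. Each agent was tested in half-log dilutions, topping at clinical Cmax or at 10 microM without a known Cmax.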

[1] = second compound 0.1 µM, first compound 0.0316 µM
[2] = second compound 0.1 µM, first compound 0.1 µM
[3] = second compound 0.1 µM, first compound 0.316 µM
[4] = second compound 0.1 µM, first compound 1 µM
[5] = second compound 0.1 µM, first compound 3.16 µM
[6] = second compound 0.316 µM, first compound 0.0316 µM
[7] = second compound 0.316 µM, first compound 0.1 µM
[8] = second compound 0.316 µM, first compound 0.316 µM
[9] = second compound 0.316 µM, first compound 1 µM
[10] = second compound 0.316 µM, first compound 3.16 µM
[11] = second compound 1 µM, first compound 0.0316 µM
[12] = second compound 1 µM, first compound 0.1 µM
[13] = second compound 1 µM, first compound 0.316 µM
[14] = second compound 1 µM, first compound 1 µM
[15] = second compound 1 µM, first compound 3.16 µM
[16] = second compound 3.16 µM, first compound 0.0316 µM
[17] = second compound 3.16 µM, first compound 0.1 µM
[18] = second compound 3.16 µM, first compound 0.316 µM
[19] = second compound 3.16 µM, first compound 1 µM
[20] = second compound 3.16 µM, first compound 3.16 µM
[21] = second compound 10 µM, first compound 0.0316 µM
[22] = second compound 10 µM, first compound 0.1 µM
[23] = second compound 10 µM, first compound 0.316 µM
[24] = second compound 10 µM, first compound 1 µM
[25] = second compound 10 µM, first compound 3.16 µM
[26] = second compound 0.1 µM, first compound 10 µM
[27] = second compound 0.316 µM, first compound 10 µM
[28] = second compound 1 µM, first compound 10 µM
[29] = second compound 3.16 µM, first compound 10 µM
[30] = second compound 10 µM, first compound 10 µM
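Further: compound exposure lasted 7 days before the readout.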
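Wherever viability, T/C is given: 100% = DMSO vehicle control viability.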

Row | Structure (SMILES) | IC50 (second compound 0.1 µM) | IC50 (second compound 0.316 µM) | IC50 (second compound 1 µM) | IC50 (second compound 3.16 µM) | IC50 (second compound 10 µM) | viability, T/C [1] | viability, T/C [2] | viability, T/C [3] | viability, T/C [4] | viability, T/C [5] | viability, T/C [6] | viability, T/C [7] | viability, T/C [8] | viability, T/C [9] | viability, T/C [10] | viability, T/C [11] | viability, T/C [12] | viability, T/C [13] | viability, T/C [14] | viability, T/C [15] | further results
1 | CC1COCCN1c1cc(-c2ccnn2C)c2ccnc(-c3ccn[nH]3)c2n1 (stereo not given) + C=CC(=O)N1CCN(c2nc(=O)n(-c3c(C)ccnc3C(C)C)c3nc(-c4c(O)cccc4F)c(F)cc23)C(C)C1 | 42 nM | 50.4 nM | 44.4 nM | 53.5 nM | 28.1 nM | 58% | 25.9% | 17.3% | 20% | 19.7% | 68.7% | 22.5% | 18.1% | 19.9% | 20.4% | 59.5% | 27.5% | 21.1% | 22.1% | 22.6% | viability, T/C (second compound 0.1 µM, first compound 0.01 µM): 95.5%; viability, T/C (second compound 0.316 µM, first compound 0.01 µM): 90.1%; viability, T/C (second compound 1 µM, first compound 0.01 µM): 122%; viability, T/C (second compound 3.16 µM, first compound 0.01 µM): 117%; viability, T/C [16]: 71.4%; viability, T/C [17]: 24.8%; viability, T/C [18]: 18.4%; viability, T/C [19]: 21.8%; viability, T/C [20]: 22.1%; viability, T/C (second compound 10 µM, first compound 0.01 µM): 92.8%; viability, T/C [21]: 45.1%; viability, T/C [22]: 24.1%; viability, T/C [23]: 23.9%; viability, T/C [24]: 24.2%; viability, T/C [25]: 19.9%
2 | CC1OCC2(CCN(c3cnc(Sc4ccnc(N)c4Cl)c(N)n3)CC2)C1N (stereo not given) + C=CC(=O)N1CCN(c2nc(=O)n(-c3c(C)ccnc3C(C)C)c3nc(-c4c(O)cccc4F)c(F)cc23)C(C)C1 | > 10000 nM | > 10000 nM | > 10000 nM | > 10000 nM | > 10000 nM | 86.7% | 73.4% | 69.9% | 64.8% | 67.5% | 119% | 92.3% | 83.3% | 73.6% | 80.4% | 118% | 87.8% | 79% | 64.1% | 78.7% | viability, T/C [26]: 77.4%; viability, T/C [27]: 83.5%; viability, T/C [28]: 78.9%; viability, T/C [16]: 99.7%; viability, T/C [17]: 91.8%; viability, T/C [18]: 100%; viability, T/C [19]: 87.3%; viability, T/C [20]: 70.1%; viability, T/C [29]: 82.3%; viability, T/C [21]: 92.3%; viability, T/C [22]: 74.8%; viability, T/C [23]: 79.7%; viability, T/C [24]: 75.6%; viability, T/C [25]: 74.1%; viability, T/C [30]: 67%
3 | CCNC(=O)CC1N=C(c2ccc(Cl)cc2)c2cc(OC)ccc2-n2c(C)nnc21 (stereo not given) + C=CC(=O)N1CCN(c2nc(=O)n(-c3c(C)ccnc3C(C)C)c3nc(-c4c(O)cccc4F)c(F)cc23)C(C)C1 | 2650 nM | 4870 nM | 4480 nM | > 10000 nM | 4230 nM | 103% | 97.6% | 80.8% | 68.5% | 43% | 88.4% | 81.2% | 68.3% | 59.7% | 55% | 120% | 82.8% | 84.4% | 64.1% | 56.1% | viability, T/C [26]: 40.8%; viability, T/C [27]: 44.5%; viability, T/C [28]: 40.8%; viability, T/C [16]: 101%; viability, T/C [17]: 92.7%; viability, T/C [18]: 78.6%; viability, T/C [19]: 65.3%; viability, T/C [20]: 59.1%; viability, T/C [29]: 51.8%; viability, T/C [21]: 94.5%; viability, T/C [22]: 102%; viability, T/C [23]: 82.6%; viability, T/C [24]: 74.6%; viability, T/C [25]: 50.7%; viability, T/C [30]: 43%
4 | Cn1nccc1Nc1nccc(-c2cc3c(s2)C(C)(C)N(CCN2CCOCC2)C3=O)n1 + C=CC(=O)N1CCN(c2nc(=O)n(-c3c(C)ccnc3C(C)C)c3nc(-c4c(O)cccc4F)c(F)cc23)C(C)C1 | 568 nM | 601 nM | 598 nM | 611 nM | 703 nM | 94.2% | 90.4% | 63.4% | 38.2% | 5.19% | 109% | 84.2% | 74.9% | 34% | 8.86% | 82% | 104% | 72.8% | 30.6% | 6.74% | viability, T/C [26]: 5.01%; viability, T/C [27]: 5.22%; viability, T/C [28]: 6.41%; viability, T/C [16]: 93.3%; viability, T/C [17]: 101%; viability, T/C [18]: 81.1%; viability, T/C [19]: 26.6%; viability, T/C [20]: 9.57%; viability, T/C [29]: 9.73%; viability, T/C [21]: 91.2%; viability, T/C [22]: 95.3%; viability, T/C [23]: 74.9%; viability, T/C [24]: 39.3%; viability, T/C [25]: 14.1%; viability, T/C [30]: 11%

Source: PubChem BioAssay AID1963863 (Molecular Pharmacology Branch, DTP, NCI, 2024)
